Patent US20250312338A1, “TREATMENT OF NEUROLOGICAL DISORDERS” (Praxis Precision Medicines, Inc., priority 2022, published 2025)
pEC50: −log10 of the molar value. In brackets after ≈: the same amount, converted by molar mass. Entries after “also recorded” stand apart in the source; their conditions may differ. Where two headings read alike, the source gives them in different places.

How the values were obtained:
[1] = in vivo
Source text: (§2) This was a 2-part randomized, placebo-controlled Phase 1 trial in healthy participants aged 18-55 years. […] PD effects were examined on quantitative EEG (qEEG; resting and vigilant conditions) and stimulated EEG using auditory steady state response (ASSR). A total of 48 participants were enrolled; Part A, n=30; Part B, n=18.

male CD-1 mice = assay: Spontaneous locomotor activity (sLMA) test
Procedure: (§3) Male CD-1 mice, 6-weeks old, were obtained from Vital River (Beijing, China). The average body weight was 25-35 g at the time the experiments were carried out. The mice were housed in groups of 3-5 under controlled conditions (temperature: 20-26° C.; humidity: 40-70%; air exchange rate: 10-15 cycles/hour; 12:12 light-dark cycle with lights on at 5:00 a.m.). Food and water were available ad libitum. The mice were acclimated to these conditions for 6 days before the start of the studies.
(§4) Dosing solutions were prepared on each experiment day. […] All solutions were protected from light. Samples from dosing solutions were stored at 4° C. Both compound and vehicle were dosed at 10 ml/kg.
(§5) The sLMA test was carried out over two days. 5 of 10 mice from each treatment group were tested on each day. All animals were marked on the tail with a permanent marker and weighed. Mice were randomly assigned into one of the four treatment groups. Animals were acclimated to the test room at least 30 minutes before the start of the experiment.
(§6) Possible side effects, such as overt sedation, were recorded just before the start of the sLMA test.
(§7) Each mouse was automatically tracked with overhead cameras using a 1-minute sampling window in an isolated chamber. Spontaneous locomotor activity was then analyzed offline using the Animal Behavior Video Tracking Analysis System (Ji Liang Software Technology Co., Ltd., Shanghai, China).
(§8) Locomotor status was defined as >2 mm of movement in every 200 ms (Frame-rate recorded was 20 frames/second. Locomotor status was identified in every 4 frame-to-frame interval. The accumulated shift of tracking spots that exceeded 2 mm in every 4 frame intervals was identified as a locomotor epoch). Traveling distance was calculated automatically from all the locomotion epochs and analyzed.
(§9) All mice were anesthetized with CO2. Then, terminal plasma and brain tissue samples were collected from animals in the drug treatment groups. 500 μL whole blood was collected via cardiac puncture and placed in tubes with 10 μL EDTAK2. The tubes were then placed in wet ice until centrifuged at 2000 g for 5 minutes at 4° C. The supernatant plasma was pipetted into Eppendorf tubes.
(§10) Data are presented as mean±s.e.m., and p<0.05 was regarded as statistically significant.
(§11) Calculating TD50 and TC50 values Dose-response and concentration-response curves for plasma and brain were fitted for each end-point using GraphPad Prism. From these fitted curves, TD50 and TC50 values were calculated.
(§12) Compound 1 and CBZ were prepared individually in 35% HPBCD. […] All solutions were dosed at 10 mL/kg. Just before the start of the sLMA test, possible side effects such as overt sedation were recorde.

in vivo = conditions: male, CD-1, mouse
Procedure: as §3, §4, §5, §6, §7, §8, §9, §10, §11, §12

human NaV1.6 = target: T1, human NaV1.6 (Homo sapiens, UniProt Q9UQD0); assay: Peak INa use dependent block (UDB-10 Hz), PatchXpress patch clamp; assay type: cell-based; conditions: hNaV1.6
T1 construct: HEK-293 cell lines stably expressing either human NaV1.6 (NP_055006); expressed in transfected cells
T1 sequence (Q9UQD0 whole entry): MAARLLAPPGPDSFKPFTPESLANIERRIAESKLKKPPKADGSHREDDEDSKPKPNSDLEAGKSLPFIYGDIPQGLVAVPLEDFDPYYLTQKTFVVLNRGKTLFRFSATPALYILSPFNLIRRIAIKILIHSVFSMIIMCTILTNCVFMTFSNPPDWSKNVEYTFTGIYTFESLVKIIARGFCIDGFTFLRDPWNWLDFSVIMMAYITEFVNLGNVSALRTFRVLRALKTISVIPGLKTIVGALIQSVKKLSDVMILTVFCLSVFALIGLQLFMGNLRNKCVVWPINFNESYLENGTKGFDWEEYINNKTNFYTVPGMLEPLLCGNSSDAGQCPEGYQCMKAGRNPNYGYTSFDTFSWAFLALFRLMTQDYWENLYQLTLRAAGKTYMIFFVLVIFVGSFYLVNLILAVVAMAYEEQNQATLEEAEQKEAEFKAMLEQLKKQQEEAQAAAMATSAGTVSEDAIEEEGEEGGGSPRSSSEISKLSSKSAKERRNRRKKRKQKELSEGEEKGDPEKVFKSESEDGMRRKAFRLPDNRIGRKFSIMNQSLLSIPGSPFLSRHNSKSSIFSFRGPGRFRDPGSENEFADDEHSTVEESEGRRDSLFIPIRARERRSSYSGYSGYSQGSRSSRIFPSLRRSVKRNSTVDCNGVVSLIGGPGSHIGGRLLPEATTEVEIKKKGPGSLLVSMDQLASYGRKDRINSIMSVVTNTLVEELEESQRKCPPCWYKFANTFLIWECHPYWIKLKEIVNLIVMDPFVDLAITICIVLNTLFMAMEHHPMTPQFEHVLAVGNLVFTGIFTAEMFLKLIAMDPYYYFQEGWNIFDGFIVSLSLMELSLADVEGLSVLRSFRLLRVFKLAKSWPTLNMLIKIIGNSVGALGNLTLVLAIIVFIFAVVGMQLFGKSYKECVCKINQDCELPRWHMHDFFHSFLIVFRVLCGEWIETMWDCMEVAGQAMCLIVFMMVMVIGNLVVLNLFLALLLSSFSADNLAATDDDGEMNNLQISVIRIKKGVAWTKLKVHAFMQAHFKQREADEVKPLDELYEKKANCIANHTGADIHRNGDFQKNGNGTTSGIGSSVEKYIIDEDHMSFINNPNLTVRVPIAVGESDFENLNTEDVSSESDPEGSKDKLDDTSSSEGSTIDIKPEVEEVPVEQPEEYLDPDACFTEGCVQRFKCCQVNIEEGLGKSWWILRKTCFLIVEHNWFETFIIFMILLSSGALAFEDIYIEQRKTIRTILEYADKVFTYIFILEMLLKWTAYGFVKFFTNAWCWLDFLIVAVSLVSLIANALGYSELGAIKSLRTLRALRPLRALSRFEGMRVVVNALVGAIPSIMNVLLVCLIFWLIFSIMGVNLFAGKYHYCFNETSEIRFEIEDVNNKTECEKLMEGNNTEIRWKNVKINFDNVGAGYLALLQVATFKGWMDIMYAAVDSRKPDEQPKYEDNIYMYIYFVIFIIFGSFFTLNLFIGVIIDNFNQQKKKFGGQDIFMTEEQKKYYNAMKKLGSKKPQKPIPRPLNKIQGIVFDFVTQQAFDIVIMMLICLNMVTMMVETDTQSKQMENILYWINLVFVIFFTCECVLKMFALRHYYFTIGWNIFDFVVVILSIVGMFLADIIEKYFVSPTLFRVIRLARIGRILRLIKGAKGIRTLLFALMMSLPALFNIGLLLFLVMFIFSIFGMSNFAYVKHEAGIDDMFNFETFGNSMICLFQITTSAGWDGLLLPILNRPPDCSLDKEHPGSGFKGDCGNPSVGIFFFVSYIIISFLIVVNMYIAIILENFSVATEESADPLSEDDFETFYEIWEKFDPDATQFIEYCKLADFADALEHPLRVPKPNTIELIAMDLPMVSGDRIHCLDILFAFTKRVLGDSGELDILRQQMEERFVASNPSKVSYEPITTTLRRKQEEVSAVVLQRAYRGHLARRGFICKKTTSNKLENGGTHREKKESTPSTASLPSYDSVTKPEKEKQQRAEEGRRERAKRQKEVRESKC

[2] = system: MES-induced seizures in male CD-1 mice; assay: Maximal electroshock seizure (MES) test; assay type: in vivo, mouse
Procedure: Food and water were available ad libitum.
VPA was prepared in saline (Vehicle 1). All solutions were protected from light. All compounds and vehicles were dosed at 10 ml/kg.
The MES test was carried out over two days with 6 of 12 mice from each treatment group being tested on each day. Mice were brought to the test room at least one hour before the start of the experiment.
A Grass S88x (Grass Technologies of Astro-Med, Inc., West Warwick, RI) Stimulus Isolation Unit (A385, WPI Inc., USA) was set to deliver a 50 mA square-wave stimulus, with a 0.8 second duration, a pulse width of 10 msec, and a frequency of 50 Hz. A pair of custom stainless steel electrodes were soaked in 0.2% Agar, and then the subject received bilateral transauricular stimulation through ear-clip electrodes. During the stimulation, mice were manually restrained. They were then released into the observation cage for convulsion observation for 60 seconds immediately after stimulation. Each mouse was observed continuously by individuals blinded to treatment conditions and results were recorded.
Anti-seizure assessment endpoints were: (1) latency of hindlimb tonic flexion; (2) latency of hindlimb tonic extension; (3) total #hindlimb tonic flexions; (4) total #hindlimb tonic extensions; (5) latency to death; and (6) mortality rate
From these fitted curves, ED50 and EC50 values were calculated.

[3] = Phase 1 28-day trial (Part A 90 mg; Part B OXC + 120 mg), pharmacokinetics
Source text: as §2

healthy participants [4] = assay: Phase 1 28-day trial (Part A 90 mg; Part B OXC + 120 mg), safety and tolerability; assay type: in vivo, human
Source text: as §2

[5] = Half-life of Compound 1 as stated in dosing guidance of Example 13; conditions: human, in vivo
[6] = Phase 1 single/multiple ascending dose and food effect trial, pharmacokinetics; assay type: in vivo, human; conditions: for Tmax: human, plasma
Procedure: (§1) This was a 3-part Phase 1 clinical trial in healthy participants aged 18-55 years. Parts A and B were randomized, placebo-controlled and evaluated the effects of single (2.5-150 mg) and multiple (30-120 mg, 14 days QD (every day)) ascending oral doses of Compound 1, respectively. Part C was an open-label, randomized, crossover design evaluating the PK of a single oral dose (90 mg) in fasted and fed states. In Parts A (n=64) and B (n=32), participants were randomized 3:1 to Compound 1 or placebo (n=8/cohort). In Part C (n=16), participants were randomized 1:1 to one of two treatment sequences receiving a single dose of 90 mg Compound 1 in the fed (following a high-fat/high calorie meal) or fasted (>10 hours after the last, and 4 hours before the next, meal) state.

[7] = Open-label study in DEE patients, pharmacokinetics (preliminary data); assay type: in vivo, human
Source text: The purpose of this study is to evaluate the safety and tolerability of Compound 1, to assess the effect of Compound 1 on the frequency of motor seizures, and to characterize the pharmacokinetics (PK) of oral suspension Compound 1 in patients with developmental and epileptic encephalopathies (DEE).
This is an open-label proof of concept study with 3 cohorts of DEE patients (SCN2A, SCN8A, and Tuberous Sclerosis Complex (TSC)) between 2 years old and 17 years old. There will be an 8-week screening period followed by a 16-week treatment period comprised of 8-week dose optimization period and 8-week maintenance period, and a 4-week safety follow-up period or roll-over into LTE. The rationale for 16-week treatment period is based on the current knowledge of Compound 1 pharmacokinetics, which is predicted to potentially take about 6 weeks to achieve 90% steady state. The 8-week dose optimization period allows for adjusting concomitant SCBs and the additional 8 weeks will allow for evaluation of tolerability and efficacy signal during the maintenance period.
Dosing will be guided by preclinical data (targeting concentration between EC50 and EC90 from MES model) and modeling from adult PK data, and duration of dose optimization phase will be predicated on adult PK data. During the dose optimization period, the dose adjustment will be as follows. […]

healthy participants [8] = assay: Phase 1 single/multiple ascending dose and food effect trial, safety and tolerability; assay type: in vivo, human; conditions: whole trial
Procedure: as §1

NC(=O)N1c2ccccc2CC(O)c2ccccc21 (stereo not shown) [10-Hydroxycarbamezapine]
exposure when administered concomitantly with Compound 1 vs alone [1]: similar

NC(=O)N1c2ccccc2C=Cc2ccccc21 [Carbamazepine]
sLMA at the dose required for complete seizure prevention (male CD-1 mice; mouse, in vivo): significant reduction
pEC50 (in vivo; in vivo): 4.72
use-dependent block of peak INa (in words) (human NaV1.6; frequency increased to 30 Hz or 50 Hz): could be observed
use-dependent block of peak INa (in words) (human NaV1.6; stimulation frequency 10 Hz): not observed
mice protected from MES-induced tonic hindlimb seizures ([2]; 30 mg/kg): all mice

NC(=O)O[C@@H](Cn1ncnn1)c1ccccc1Cl [Cenobamate]
Ratio to Peak INa (TB) (TB / UDB-10 Hz) (human NaV1.6): 2.3

CCOC(F)(F)c1nnc2cnc(-c3cnc(OCC(F)(F)F)c(F)c3)cn12 [Compound 1]
increase in Compound 1 concentrations over the human-equivalent dose required for efficacy in preclinical MES models [3]: 13 fold
approach to steady state ([3]; 90 mg for 28 days): approached steady state
effect on locomotor function (male CD-1 mice; 10 mg/kg): no effect
total traveling distance in the 30-minute sLMA test (male CD-1 mice; 20 and 40 mg/kg p.o.): significantly reduced; also recorded: reductions
TC50 (free brain) Tolerability (sLMA) (male CD-1 mice; free brain concentration): 69.7 nM
TC50 in brain, free (sLMA) (male CD-1 mice; free brain concentration): 69.7 nM
TC50 in plasma, free (sLMA) (male CD-1 mice; free plasma concentration): 308.9 nM
TC50 in brain (sLMA) (male CD-1 mice; total brain concentration): 1899 ng/g
TC50 in plasma (sLMA) (male CD-1 mice; total plasma concentration): 1.553 µg/mL (≈ 3.81 µM)
pEC50 (in vivo; plasma (free concentration), oral): 6.51
TEAEs mild or moderate (healthy participants [4]; Part A): 100%
TEAEs moderate in severity (healthy participants [4]; Part A): 29%
tolerability in healthy adults (healthy participants [4]; Part A, 90 mg): well tolerated
TEAEs mild in severity (healthy participants [4]; Part A, 90 mg QD 28 days vs placebo, 35 TEAEs across 13 participants): 71%
review of ALT/AST increases and rhabdomyolysis (healthy participants [4]; Part B): did not identify a causal association
half-life [5]: ~96 h
increase in AUC, fed vs fasted ([6]; 90 mg single dose): 14%
increase in Cmax, fed vs fasted ([6]; 90 mg single dose): 9%
Tmax ([6]; oral, 90 mg, 90 mg single dose, fasted, read-out: tmax, fasted state): 2.5 h
Tmax ([6]; oral, 90 mg, 90 mg single dose, fed, read-out: tmax, fed state): 4 h
Tmax ([6]; po, healthy adults, read-out: time to observed maximum concentration (tmax)): 2 to 3 h
exposure vs dose ([6]; over the evaluated dose range): increased dose proportionally
approach to steady state ([7]; after 28 days of once daily dosing and auto-titration): approaches steady state
Compound 1 exposures on Day 1 (after single dose) ([7]; first 12 DEE participants, preliminary): above therapeutic range; also recorded: above predicted therapeutic levels
TEAEs that were mild (healthy participants [8]): > 92%

Nc1nnc(-c2cccc(Cl)c2Cl)c(N)n1 [Lamotrigine]
pEC50 (in vivo; in vivo): 4.69
use-dependent block of peak INa (in words) (human NaV1.6; stimulation frequency 10 Hz): not observed
mice protected from MES-induced tonic hindlimb seizures ([2]; 10 mg/kg): eight of 12

NC(=O)N1c2ccccc2CC(=O)c2ccccc21 [Oxcarbazepine, reference compound]
exposure when administered concomitantly with Compound 1 vs alone [1]: similar
patients in whom TEAEs were observed (healthy participants [4]; Part B, per arm): 75%
